Reference: PubChem BioAssay (NCI)
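The concentration for 50% growth inhibition is given as GI50. TGI denotes the concentration required for complete inhibition of growth.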

Assays:
Test in all cases: DTP human tumour cell line panel, 384-well format
HS 578T breast = test system: HS 578T breast
RXF 393 renal = test system: RXF 393 renal
MDA-MB-468 breast = test system: MDA-MB-468 breast
SF-268 CNS = test system: SF-268 CNS
NCI-H460 NSCLC = test system: NCI-H460 NSCLC
U251 glioblastoma = test system: U251 glioblastoma
MCF7 breast = test system: MCF7 breast
MDA-MB-231 breast = test system: MDA-MB-231 breast
SNB-19 CNS = test system: SNB-19 CNS
SK-MEL-28 melanoma = test system: SK-MEL-28 melanoma
ACHN renal = test system: ACHN renal
BT-549 breast = test system: BT-549 breast
UO-31 renal = test system: UO-31 renal
IGROV1 ovarian = test system: IGROV1 ovarian
CAKI-1 renal = test system: CAKI-1 renal
MOLT-4 leukemia = test system: MOLT-4 leukemia
SF-539 CNS = test system: SF-539 CNS
K-562 leukemia = test system: K-562 leukemia
OVCAR-4 ovarian = test system: OVCAR-4 ovarian
HT29 colon = test system: HT29 colon
NCI-H226 lung = test system: NCI-H226 lung
SK-MEL-5 melanoma = test system: SK-MEL-5 melanoma
NCI/ADR-RES ovarian = test system: NCI/ADR-RES ovarian
HOP-62 NSCLC = test system: HOP-62 NSCLC
KM12 colon = test system: KM12 colon
UACC-257 melanoma = test system: UACC-257 melanoma
NCI-H322M lung = test system: NCI-H322M lung
A549 NSCLC = test system: A549 NSCLC
MDA-MB-435 melanoma = test system: MDA-MB-435 melanoma
NCI-H522 lung = test system: NCI-H522 lung
OVCAR-3 ovarian = test system: OVCAR-3 ovarian
SR leukemia = test system: SR leukemia
UACC-62 melanoma = test system: UACC-62 melanoma
NCI-H23 lung = test system: NCI-H23 lung
A498 renal = test system: A498 renal
EKVX NSCLC = test system: EKVX NSCLC
T-47D breast = test system: T-47D breast
LOX IMVI melanoma = test system: LOX IMVI melanoma
SF-295 CNS = test system: SF-295 CNS
MALME-3M melanoma = test system: MALME-3M melanoma
786-0 renal = test system: 786-0 renal
HL-60(TB) leukemia = test system: HL-60(TB) leukemia
SW-620 colon = test system: SW-620 colon
CCRF-CEM leukemia = test system: CCRF-CEM leukemia
RPMI-8226 leukemia = test system: RPMI-8226 leukemia
PC-3 prostate = test system: PC-3 prostate
COLO 205 colon = test system: COLO 205 colon
OVCAR-5 ovarian = test system: OVCAR-5 ovarian
SK-OV-3 ovarian = test system: SK-OV-3 ovarian
TK-10 renal = test system: TK-10 renal
SNB-75 CNS = test system: SNB-75 CNS
HCT-15 colon = test system: HCT-15 colon
HOP-92 NSCLC = test system: HOP-92 NSCLC
SN12C renal = test system: SN12C renal
DU-145 prostate = test system: DU-145 prostate
OVCAR-8 ovarian = test system: OVCAR-8 ovarian
M14 melanoma = test system: M14 melanoma
HCC-2998 colon = test system: HCC-2998 colon

c1ccc(-c2nn3c(c2-c2ccnc4cc(OCCN5CCOCC5)ccc24)CCC3)nc1
GI50 (HS 578T breast): > 100 µM | TGI (HS 578T breast): > 100 µM | GI50 (RXF 393 renal): > 100 µM | TGI (RXF 393 renal): > 100 µM | GI50 (MDA-MB-468 breast): 40.3 µM | TGI (MDA-MB-468 breast): > 100 µM | GI50 (SF-268 CNS): > 100 µM | TGI (SF-268 CNS): > 100 µM | GI50 (NCI-H460 NSCLC): 51.3 µM | TGI (NCI-H460 NSCLC): > 100 µM | GI50 (U251 glioblastoma): > 100 µM | TGI (U251 glioblastoma): > 100 µM | GI50 (MCF7 breast): 24.9 µM | TGI (MCF7 breast): > 100 µM | GI50 (MDA-MB-231 breast): > 100 µM | TGI (MDA-MB-231 breast): > 100 µM | GI50 (SNB-19 CNS): > 100 µM | TGI (SNB-19 CNS): > 100 µM | GI50 (SK-MEL-28 melanoma): > 100 µM | TGI (SK-MEL-28 melanoma): > 100 µM | GI50 (ACHN renal): 66.9 µM | TGI (ACHN renal): > 100 µM | GI50 (BT-549 breast): > 100 µM | TGI (BT-549 breast): > 100 µM | GI50 (UO-31 renal): > 100 µM | TGI (UO-31 renal): > 100 µM | GI50 (IGROV1 ovarian): > 100 µM | TGI (IGROV1 ovarian): > 100 µM | GI50 (CAKI-1 renal): 62.4 µM | TGI (CAKI-1 renal): > 100 µM | GI50 (MOLT-4 leukemia): 4.62 µM | TGI (MOLT-4 leukemia): 17.4 µM | GI50 (SF-539 CNS): > 100 µM | TGI (SF-539 CNS): > 100 µM | GI50 (K-562 leukemia): 23.4 µM | TGI (K-562 leukemia): > 100 µM | GI50 (OVCAR-4 ovarian): > 100 µM | TGI (OVCAR-4 ovarian): > 100 µM | GI50 (HT29 colon): 48.2 µM | TGI (HT29 colon): > 100 µM | GI50 (NCI-H226 lung): > 100 µM | TGI (NCI-H226 lung): > 100 µM | GI50 (SK-MEL-5 melanoma): 16.2 µM | TGI (SK-MEL-5 melanoma): > 100 µM | GI50 (NCI/ADR-RES ovarian): > 100 µM | TGI (NCI/ADR-RES ovarian): > 100 µM | GI50 (HOP-62 NSCLC): > 100 µM | TGI (HOP-62 NSCLC): > 100 µM | GI50 (KM12 colon): 85.1 µM | TGI (KM12 colon): > 100 µM | GI50 (UACC-257 melanoma): > 100 µM | TGI (UACC-257 melanoma): > 100 µM | GI50 (NCI-H322M lung): > 100 µM | TGI (NCI-H322M lung): > 100 µM | GI50 (A549 NSCLC): 29.9 µM | TGI (A549 NSCLC): > 100 µM | GI50 (MDA-MB-435 melanoma): > 100 µM | TGI (MDA-MB-435 melanoma): > 100 µM | GI50 (NCI-H522 lung): 58.2 µM | TGI (NCI-H522 lung): > 100 µM | GI50 (OVCAR-3 ovarian): > 100 µM | TGI (OVCAR-3 ovarian): > 100 µM | GI50 (SR leukemia): 40.3 µM | TGI (SR leukemia): > 100 µM | GI50 (UACC-62 melanoma): > 100 µM | TGI (UACC-62 melanoma): > 100 µM | GI50 (NCI-H23 lung): > 100 µM | TGI (NCI-H23 lung): > 100 µM | GI50 (A498 renal): > 100 µM | TGI (A498 renal): > 100 µM | GI50 (EKVX NSCLC): > 100 µM | TGI (EKVX NSCLC): > 100 µM | GI50 (T-47D breast): > 100 µM | TGI (T-47D breast): > 100 µM | GI50 (LOX IMVI melanoma): > 100 µM | TGI (LOX IMVI melanoma): > 100 µM | GI50 (SF-295 CNS): > 100 µM | TGI (SF-295 CNS): > 100 µM | GI50 (MALME-3M melanoma): > 100 µM | TGI (MALME-3M melanoma): > 100 µM | GI50 ([…]-0 renal): > 100 µM | TGI (786-0 renal): > 100 µM | GI50 (HL-60(TB) leukemia): > 100 µM | TGI (HL-60(TB) leukemia): > 100 µM | GI50 (SW-620 colon): > 100 µM | TGI (SW-620 colon): > 100 µM | GI50 (CCRF-CEM leukemia): 39.3 µM | TGI (CCRF-CEM leukemia): > 100 µM | GI50 (RPMI-8226 leukemia): 48 µM | TGI (RPMI-8226 leukemia): > 100 µM | GI50 (PC-3 prostate): > 100 µM | TGI (PC-3 prostate): > 100 µM | GI50 (COLO 205 colon): 37.9 µM | TGI (COLO 205 colon): > 100 µM | GI50 (OVCAR-5 ovarian): > 100 µM | TGI (OVCAR-5 ovarian): > 100 µM | GI50 (SK-OV-3 ovarian): > 100 µM | TGI (SK-OV-3 ovarian): > 100 µM | GI50 (TK-10 renal): > 100 µM | TGI (TK-10 renal): > 100 µM | GI50 (SNB-75 CNS): > 100 µM | TGI (SNB-75 CNS): > 100 µM | GI50 (HCT-15 colon): 37.3 µM | TGI (HCT-15 colon): > 100 µM | GI50 (HOP-92 NSCLC): 85.6 µM | TGI (HOP-92 NSCLC): > 100 µM | GI50 (SN12C renal): > 100 µM | TGI (SN12C renal): > 100 µM | GI50 (DU-145 prostate): > 100 µM | TGI (DU-145 prostate): > 100 µM | GI50 (OVCAR-8 ovarian): > 100 µM | TGI (OVCAR-8 ovarian): > 100 µM | GI50 (M14 melanoma): > 100 µM | TGI (M14 melanoma): > 100 µM | GI50 (HCC-2998 colon): > 100 µM | TGI (HCC-2998 colon): > 100 µM
